# According to patent US20260000658A1, “METHODS FOR THE TREATMENT OF PROLIFERATIVE GLOMERULONEPHRITIS” (INSTITUT NATIONAL DE LA SANTÉ ET DE LA RECHERCHE MÉDICALE, priority 2022, published 2026):
# Columns and labels:
# Format in all cases: in vivo, mouse
# [1] = LC-MS analysis of alpelisib in kidneys after oral gavage; settings: 2 hours after oral gavage
# Experimental: Each tissue type was homogenized in 100% cold methanol with tissue-to-solvent ratio of 1-mg tissue to 5-μl methanol. After sonication of 20 s, the tissue extract was centrifuged at 13,000 g for 30 min and then injected onto a Phenomenex Kinetex XB-C18 HPLC column (100 mm by 2.1 mm) at 45° C. Alpelisib was analyzed by reverse-phase HPLC (Shimadzu LCMS system 8040 interfaced with the LabSolutions software). Twenty […] of tissue extracts were injected onto a column, and the mobile phase used for the separation consisted of two eluants: Solvent A was 0.1% formic acid in ddH20, and solvent B was acetonitrile with 0.1% of formic acid. Compounds were separated by the following discontinuous gradient at a flow rate of 0.6 ml/min: The initial concentration of 20% in solvent B increase to 70% over 6 min, and this was followed by a decrease to 20% over the next minute, and the initial conditions were then maintained for 14 min. The alpelisib was monitored spectrophotometrically by absorbance (photodiode detector) from 205 to 600 nm and by tandem mass detection. The mass measurement was implemented in positive ion mode using multiple reaction monitoring (MRM) with an electrospray ionization source. […] The quantification was done by integration of the peak absorbance area using a calibration curve established with various known concentrations of alpelisib. […]
# [2] = tested on: PIK3CA^Pod-HO mice; experiment: PIK3CA^Pod-HO mice pilot study, vehicle or alpelisib; settings: 3 months old
# Experimental: (§1) For the uninephrectomy experiments, the right kidneys were removed under anesthesia. For the medical treatment of mice, 50 mg kg −1 alpelisib (MedChem Tronica) in 1% carboxymethylcellulose (Sigma Aldrich)+0.5% Tween (Sigma Aldrich) or vehicle (1% carboxymethylcellulose+0.5% Tween) was administered by oral gavage daily for the indicated periods of time. Blood and urines were obtained at the indicated times. At euthanasia, blood, urines, kidneys were harvested. In some experiments, spleens, hearts, and bone marrow (BM) in femurs and tibias were harvested as well. Tissues were fixed in 4% paraformaldehyde and paraffin embedded for immunohistochemical analysis, snap-frozen in Optimal Cutting Temperature (OCT), or stored at −80° C. for mRNA or protein analysis.
# (§2) Mouse blood counts were analyzed using a hematology analyzer (ProCyte Dx; IDEXX Laboratories). Mouse serum creatinine, blood urea nitrogen, urinary albumin, and urinary creatinine were evaluated using an AU5800 (Beckman Coulter) autoanalyzer. Serum anti-dsDNA measurement was performed according to the manufacturer's instruction using mouse anti-dsDNA ELISA kit (LBIS). The absorbance was measured using Ininite M Nano (TECAN).
# (§3) 4-μm kidney sections were stained with periodic acid-Schiff (PAS), Masson's Trichrome (MT), Periodic acid metenamine silver (PAM) or Hematoxylin and Eosin (HE) staining for histological analysis. The degree of glomerular lesions was evaluated using the following scoring system: 0=no lesion, 1=affecting up to 25% of the glomerulus, 2=affecting 25-50% of the glomerulus, 3=affecting 50-75% of the glomerulus, and 4=affecting 75-100%. At least 50 glomeruli per sample were measured for each analysis. An indirect immunoperoxidase method was used for immunohistochemistry. Briefly, after deparaffinization, antigen retrieval was performed with citrate buffer (pH6) or Tris-EDTA buffer (pH9 or pH6) using microwave or high temperature (95° C.). Endogenous peroxidase activity was quenched using 3% hydrogen peroxide; nonspecific protein binding was blocked using 2.5% normal horse serum (Vector Laboratories), and endogenous biotin activity was quenched using the Avidin/Biotin Blocking Kit (Vector Laboratories). When using mouse primary antibodies on mouse tissue, Klear mouse blocking reagent (Diagomics) was used to block endogenous mouse immunoglobulins. After blocking, the tissue sections were incubated with the primary antibodies overnight at 4° C. The following primary antibodies were used: rabbit anti-Ki67 antibody (SP6; Thermo Fisher Scientific), rabbit anti-P-S6RP antibody (D68F8; Cell Signaling Technology), mouse anti-P-AKT (Ser473) antibody (587F11; Cell Signaling Technology), rabbit anti-P-AKT (Thr308) antibody (C31E5E; Cell Signaling Technology), mouse anti-S6RP antibody (54E2; Cell Signaling Technology), chicken anti-GFP antibody (Abcam), guinea pig anti-Nephrin antibody (GP-N2; Progen), rabbit anti-Podocin antibody (P0372; Sigma Aldrich), mouse anti-WTI antibody (6F-H2; DAKO). The corresponding secondary antibodies including anti-mouse IgG, anti-rabbit IgG, anti-guinea pig IgG, biotinylated anti-rabbit IgG (Vector Laboratories), and biotinylated anti-mouse IgG (Vector Laboratories) were applied. For Avidin/Biotin detection, an R.T.U. Vectastain Kit (Vector Laboratories) or streptavidin (Thermo Fisher Scientific) was used. The immunoreactive antigens sites were detected with hydrogen peroxide and diaminobenzidine. […]
# [3] = tested on: PIK3CA^Pod-HET mice; experiment: PIK3CA^Pod-HET mice treated orally with alpelisib
# Experimental: as §1, §2, §3
# [4] = tested on: Tg26^HE mice; experiment: Tg26^HE mice (collapsing glomerulopathy model), vehicle or alpelisib for 8 weeks; settings: 8 weeks treatment
# Experimental: as §1, §2
# as §3, with “diaminobenzidine. For frozen immunofluorescent staining, frozen tissue sections (4 μm) were briefly air dried and fixed in 50% methanol/50% acetone. The sections were then blocked with 2.5% normal horse serum and incubated with primary antibodies: guinea pig anti-Nephrin antibody (GP-N2; Progen) overnight at 4° C. The sections were then incubated at room temperature for 40 min with secondary antibodies: fluorescein isothiocyanate-conjugated (FITC) anti-mouse IgG (Sigma Aldrich), FITC anti-mouse IgM (BD Biosciences), or FITC anti-mouse C3 antibody (abcam).” for “diaminobenzidine.”
# [5] = 3 months old mice, oral, 2-3 weeks
structure (smiles),measurement,setting,value
"Cc1nc(NC(=O)N2CCC[C@H]2C(N)=O)sc1-c1ccnc(C(C)(C)C(F)(F)F)c1 [alpelisib, Alpelisib]",alpelisib in kidneys (LC-MS),[1],detectable
same,albuminuria,[2]; 2 consecutive weeks,progressive albuminuria reduction
same,AKT/mTOR pathway in podocytes,[2]; 2 weeks,blunted
same,glomerulus proliferation (Ki67),[2]; 2 weeks,decrease in glomerulus proliferation
same,"podocyte differentiation markers, protein levels",[2]; 2 weeks,still expressed
same,"glomeruli, kidney histological analysis","[2]; 2 weeks, vs vehicle",preserved glomeruli
same,albuminuria,[3]; [5],progressive reduction in albuminuria
same,glomerular AKT/mTOR pathway,[3]; [5],glomerular inhibition of the AKT/mTOR pathway
same,podocyte size,[3]; [5],podocyte size reduction
same,gene expression anomalies (scRNA-seq),[3]; alpelisib-treated PIK3CA^Pod-HET mice,correction of various gene expression anomalies
same,podocyte populations (scRNA-seq of kidney cells),"[3]; alpelisib-treated, untreated PIK3CA^Pod-HET 23.7%, WT about 10%",11.7%
same,albuminuria,"[4]; 4 weeks old, vs vehicle",lower albuminuria
same,AKT/mTOR pathway,[4],profound AKT/mTOR pathway inhibition
same,kidney function,[4],not significantly improved
same,expression of podocyte differentiation markers,[4]; vs vehicle,higher expression of podocyte differentiation markers
same,fibrotic markers Col1a and Col3a,[4]; vs vehicle,reduced expression in fibrotic markers
same,glomerular lesions,[4]; vs vehicle,less severe glomerular lesions
same,inflammatory marker Tnfa,[4]; vs vehicle,lower expression
same,kidney volume,[4]; vs vehicle,reduction in kidney volume
same,tubular injury markers Lcn2 and KIM1,[4]; vs vehicle,lower expression of tubular injury markers
